The text below walks through data of publication PMC12006963, “Application of Deuterium in an M1 Positive Allosteric Modulator Back-Up Program: The Discovery of VU6045422” (ACS Chemical Neuroscience, 2025).

Holding throughout (format): in vitro ADME
Data set [1] in a line: Predicted hepatic clearance, hepatic microsomes (rat). The method, then:
After a 5 min preincubation, the reaction was initiated by the addition of NADPH (1 mM). At selected time intervals (0, 3, 7, 15, 25, and 45 min), aliquots were taken and subsequently placed into a 96-well plate containing cold acetonitrile with internal standard (50 ng/mL carbamazepine). Plates were then centrifuged at 3000 rcf (4 °C) for 10 min, and the supernatant was transferred to a separate 96-well plate and diluted 1:1 with water for LC/MS/MS analysis. The in vitro half-life ( 1/2, min, Eq. 1), intrinsic clearance (CLint, mL/min/kg, Eq. 2), and subsequent predicted hepatic clearance (CLhep, mL/min/kg, Eq. 3) was determined employing the […]
where k represents the slope from linear regression analysis of the natural log percent remaining of a test compound as a function of incubation time […]
(2) CLint = in vitroT1/2 x mg microsomes x gram liver x kg body wt ascale-up factors: of 20 (human) or 45 (rat) […]
where Qh (hepatic blood flow, mL/min/kg) is 21 (human) or 70 (rat).
LC/MS/MS Bioanalysis of Samples from Plasma Protein Binding and Intrinsic Clearance […]
Samples were analyzed on a Thermo Electron TSQ Quantum Ultra triple quad mass spectrometer (San Jose, CA) via electrospray ionization (ESI) with two Themo Electron Accella pumps (San Jose, CA), and a Leap Technologies CTC PAL autosampler (Carrboro, NC). Analytes were separated by gradient elution on a dual column system with two Thermo Hypersil Gold (2.1 x 30 mm, 1.9 µm) columns (San Jose, CA) thermostated at 40 °C. HPLC mobile phase A was 0.1% formic acid in water and mobile phase B was 0.1% formic acid in acetonitrile. The gradient started […]
for 0.2 min; returned to 10% B in 0.1 min. The total run time was 1.3 min and the HPLC flow rate was 0.8 mL/min. While pump 1 ran the gradient method, pump 2 equilibrated the alternate column isocratically at 10% B. Compound optimization, data collection, and processing was performed using Thermo Electron's QuickQuan software (v2.3) and Xcalibur (v2.0.7 SP1).
In vivo DMPK experimental:
Determination of brain to plasma ratio: […]

A short description of data set [2]: Brain homogenate binding. As to conditions: pH 7.4; rat brain homogenate; read-out: fu,brain. The method, then:
Plasma protein binding and Brain homogenate binding: Determination of fraction unbound (f u) in plasma was conducted in vitro via equilibrium dialysis using HTDialysis (HTD) membrane plates. The top half of the plate was filled with 100 uL of Dubelco’s Phosphate Buffered Saline, pH 7.4 (DPBS). Compounds were diluted into plasma from each species (5 µM final concentration), which was aliquoted in triplicate to the ‘bottom half’ of the prepared HTD plate wells. The HTD plate was sealed and incubated for 6 hours at 37 °C. Following incubation, each well (both top and bottom halves) were transferred (20 µL) to the corresponding wells of a 96-shallow-well (V-bottom) plate. The daughter plates were then matrix-matched (DPBS side wells received equal volume of plasma, and plasma side wells received equal volume of DPBS), and extraction solution (120 µL; acetonitrile containing 50 nM carbamazepine as IS) was added to all wells of both daughter plates to precipitate protein and extract test article. The plates were then sealed and centrifuged (3500 rcf) for 10 minutes at ambient temperature. […]
The unbound fraction (f u) was calculated following the equation below, and mean values for each species were calculated from 3 replicates.
A similar approach was used to determine the degree of brain homogenate binding, which employed the same methodology and procedure with the following modifications: 1) a final compound concentration of 1 μM was used, 2) naïve rat brains were homogenized in DPBS (1:3 composition of brain: DPBS, w/w) using a Mini-Bead Beater™ machine in order to obtain brain homogenate, which was then treated in the same manner as the plasma samples in the previously described plasma protein binding assay. Fraction unbound for both plasma and brain samples was determined using Equation 4. […]
The diluted fraction unbound (fu2) in brain was calculated in the same manner by using brain homogenate rather than plasma. Undiluted fraction unbound for the brain was calculated using […]

The target in data set [3] is CYP 3A4 (Homo sapiens, UniProt P08684). The experiment in a line: CYP inhibition 3A4. An excerpt: Table 1 Pharmacology and In Vitro DMPK Profiles of M1 PAMs 1, 3, and 5 | column: 1; 3; 5
Data set [4] is described as follows: Hepatocyte metabolite identification (monkey). The settings on record: monkey hepatocytes, 4 h incubation. The method, then:
Prior to full characterization of deuterated analogues 3 and 5, they were incubated in rat, dog, monkey, and human hepatocytes, along with 1, to determine the amount of parent remaining, as well as the degree of undesired oxidative metabolites 2, 4, and 6 (Figure 2). […] For the gem-dideutero congener 3, metabolic stability was improved in vitro. […] Thus, in hepatocytes in vitro, the kinetic isotope effect engendered greater metabolic stability of the labile hot spot on the lactam. It remained to be seen if this effect would translate in vivo, but we first had to assess the impact of the deuterated analogues on molecular pharmacology, in vitro DMPK, standard low-dose in vivo DMPK and, if warranted, in vivo efficacy in a rat novel object recognition (NOR) behavioral assay.

The IC50 is the concentration that inhibits the measured activity by half.

Chain of CYP 3A4 (P08684 whole entry): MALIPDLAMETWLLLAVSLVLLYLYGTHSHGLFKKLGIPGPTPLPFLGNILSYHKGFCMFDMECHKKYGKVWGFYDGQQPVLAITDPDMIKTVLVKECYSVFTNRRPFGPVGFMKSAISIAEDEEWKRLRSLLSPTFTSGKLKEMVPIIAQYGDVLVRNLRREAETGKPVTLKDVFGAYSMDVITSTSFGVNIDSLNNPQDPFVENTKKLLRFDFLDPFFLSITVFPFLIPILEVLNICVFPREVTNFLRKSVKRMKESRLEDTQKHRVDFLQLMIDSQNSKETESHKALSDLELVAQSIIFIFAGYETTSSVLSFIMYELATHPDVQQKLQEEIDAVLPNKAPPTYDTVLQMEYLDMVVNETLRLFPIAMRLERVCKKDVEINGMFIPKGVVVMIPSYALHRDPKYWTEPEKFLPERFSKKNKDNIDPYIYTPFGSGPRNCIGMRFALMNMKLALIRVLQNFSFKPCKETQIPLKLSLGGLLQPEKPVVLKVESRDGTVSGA

For `Cn1cc2c(-c3cc(F)c(CN4Cc5ncccc5C4=O)c(F)c3)cccc2n1` [compound 1], in data set [1], the “Predicted CLhep” value is listed as 5.7 mL/min/kg. The fraction unbound at 6 h, 1 µM in data set [2] was 0.04. Also, the IC50 in data set [3] is above 30 µM. The “% Total Peak Area, parent remaining” value in data set [4] stood at 25.8%.
For the compound `[2H]C1([2H])c2ncccc2C(=O)N1Cc1c(F)cc(-c2cccc3nn(C)cc23)cc1F` [compound 3], the “Predicted CLhep” value in data set [1] is 41.3 mL/min/kg. The fraction unbound at 6 h, 1 µM in data set [2] amounted to 0.031. In addition, in data set [3], the half-inhibitory concentration (IC50) is above 30 µM. Besides, in data set [4], the “% Total Peak Area, parent remaining” value was 58.5%.
`[2H]C1([2H])c2ncccc2C(=O)N1Cc1c(F)cc(-c2cccc3nn(C([2H])([2H])[2H])cc23)cc1F` [compound 5]: the “Predicted CLhep” value in data set [1] is given as 35.9 mL/min/kg. Besides, the fraction unbound at 6 h, 1 µM in data set [2] was 0.036. This compound also registered a 50% inhibitory concentration (IC50) in data set [3] of 28.6 µM. Besides, in data set [4], the “% Total Peak Area, parent remaining” value stood at 60.5%.
